The results in this text go back to publication PMC2617778, “Discovery of a Novel Activator of KCNQ1-KCNE1 K^+ Channel Complexes” (PLoS ONE, 2009).

Common to all, as to type: cell-based
Test [1] addresses T1, Q2/Q3 (KCNQ2/3) (Homo sapiens, UniProt O43525+O43526).
T1 construct: heterotetramer; equal mRNA amounts of both subunits in Xenopus laevis oocytes
Briefly: two-electrode voltage clamp, Xenopus oocytes; delta gmax on washout, hyperbola fit. To be noted: read-out: Phenylboronic Acid (PBA) / EC50. From the text:
two-electrode voltage clamp, Xenopus oocytes; delta gmax on washout, hyperbola fit on Q2/Q3 (KCNQ2/3)

For test [2], the target named is T2, KCNQ4 (Q4) (Homo sapiens, UniProt P56696).
T2 construct: homotetramer expressed in Xenopus laevis oocytes
T2 sequence (P56696 1-695): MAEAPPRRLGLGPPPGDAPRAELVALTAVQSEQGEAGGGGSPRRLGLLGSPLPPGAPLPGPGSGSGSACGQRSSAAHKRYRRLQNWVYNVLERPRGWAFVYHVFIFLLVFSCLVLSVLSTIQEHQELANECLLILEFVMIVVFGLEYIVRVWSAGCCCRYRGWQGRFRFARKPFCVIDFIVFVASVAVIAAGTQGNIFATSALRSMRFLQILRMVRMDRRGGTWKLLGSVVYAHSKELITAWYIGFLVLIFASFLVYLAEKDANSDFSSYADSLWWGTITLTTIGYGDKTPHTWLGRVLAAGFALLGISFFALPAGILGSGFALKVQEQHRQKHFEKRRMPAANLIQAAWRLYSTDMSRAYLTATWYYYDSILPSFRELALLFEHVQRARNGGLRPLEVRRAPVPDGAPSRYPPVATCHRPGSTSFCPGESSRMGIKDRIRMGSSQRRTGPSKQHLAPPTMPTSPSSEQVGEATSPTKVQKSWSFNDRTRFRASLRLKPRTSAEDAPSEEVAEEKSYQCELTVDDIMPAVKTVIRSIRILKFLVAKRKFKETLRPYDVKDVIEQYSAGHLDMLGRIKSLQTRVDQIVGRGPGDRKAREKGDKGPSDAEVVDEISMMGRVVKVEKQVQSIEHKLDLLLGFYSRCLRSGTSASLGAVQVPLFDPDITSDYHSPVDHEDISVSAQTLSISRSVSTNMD
The test is described as above. To be noted: read-out: Phenylboronic Acid (PBA) / EC50. From the text:
two-electrode voltage clamp, Xenopus oocytes; delta gmax on washout, hyperbola fit on KCNQ4 (Q4)

The target in test [3] is T3, Q1/E1 (KCNQ1/KCNE1 complex) (Homo sapiens, UniProt P51787).
T3 construct: with Potassium voltage-gated channel subfamily E member 1
Put plainly: two-electrode voltage clamp, Xenopus oocytes. To be noted: inhibitor, ND96, pH 7.6, +40 mV, 2 s pulse. For orientation: Two-electrode voltage clamp holds a large cell at a set potential and records current.

Test [4] deals with T4, Q1/E3 (KCNQ1/KCNE3 complex) (Homo sapiens, UniProt P51787).
T4 construct: with Potassium voltage-gated channel subfamily E member 3
T4 sequence (P51787 1-676): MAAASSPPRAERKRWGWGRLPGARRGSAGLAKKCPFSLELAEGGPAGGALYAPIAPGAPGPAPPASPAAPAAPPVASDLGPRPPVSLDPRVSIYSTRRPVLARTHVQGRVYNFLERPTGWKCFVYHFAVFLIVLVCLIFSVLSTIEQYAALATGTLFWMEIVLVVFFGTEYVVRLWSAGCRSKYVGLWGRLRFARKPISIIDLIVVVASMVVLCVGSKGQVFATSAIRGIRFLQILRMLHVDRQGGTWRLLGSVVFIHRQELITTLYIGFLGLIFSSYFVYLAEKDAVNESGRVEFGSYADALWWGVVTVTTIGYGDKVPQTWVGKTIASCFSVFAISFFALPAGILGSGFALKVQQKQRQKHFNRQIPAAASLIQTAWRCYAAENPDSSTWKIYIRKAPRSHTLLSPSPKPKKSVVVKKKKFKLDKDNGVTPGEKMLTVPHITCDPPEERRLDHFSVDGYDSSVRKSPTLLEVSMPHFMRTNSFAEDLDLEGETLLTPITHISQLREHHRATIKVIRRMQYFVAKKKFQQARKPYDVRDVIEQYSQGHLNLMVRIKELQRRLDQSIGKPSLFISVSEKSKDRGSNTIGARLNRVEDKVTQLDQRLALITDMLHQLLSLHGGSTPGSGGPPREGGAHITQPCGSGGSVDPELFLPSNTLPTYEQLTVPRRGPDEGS
T4 sequence (Q9Y6H6 1-103 partner): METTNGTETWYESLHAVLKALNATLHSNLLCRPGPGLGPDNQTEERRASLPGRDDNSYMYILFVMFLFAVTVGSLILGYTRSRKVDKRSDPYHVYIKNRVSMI
Briefly: two-electrode voltage clamp, Xenopus oocytes; tail-current Boltzmann fit. To be noted: activator (raises current, no V1/2 shift); 10 mM; KD50 (50 mM K+), pH 7.6. From the text: two-electrode voltage clamp, Xenopus oocytes; tail-current Boltzmann fit on Q1/E3 (KCNQ1/KCNE3 complex)

The target in test [5] is T1, Q2/Q3 (KCNQ2/3). Described as above. Particulars: activator; 10 mM; ND96, pH 7.6. From the text: two-electrode voltage clamp, Xenopus oocytes; tail-current Boltzmann fit on Q2/Q3 (KCNQ2/3)
The target of test [6] is T3, Q1/E1 (KCNQ1/KCNE1 complex). Described as above. Particulars: reversible activator; 10 mM; ND96, pH 7.6. From the text: two-electrode voltage clamp, Xenopus oocytes; tail-current Boltzmann fit on Q1/E1 (KCNQ1/KCNE1 complex)

Structures are written as SMILES.

T1 sequence (O43526 whole entry): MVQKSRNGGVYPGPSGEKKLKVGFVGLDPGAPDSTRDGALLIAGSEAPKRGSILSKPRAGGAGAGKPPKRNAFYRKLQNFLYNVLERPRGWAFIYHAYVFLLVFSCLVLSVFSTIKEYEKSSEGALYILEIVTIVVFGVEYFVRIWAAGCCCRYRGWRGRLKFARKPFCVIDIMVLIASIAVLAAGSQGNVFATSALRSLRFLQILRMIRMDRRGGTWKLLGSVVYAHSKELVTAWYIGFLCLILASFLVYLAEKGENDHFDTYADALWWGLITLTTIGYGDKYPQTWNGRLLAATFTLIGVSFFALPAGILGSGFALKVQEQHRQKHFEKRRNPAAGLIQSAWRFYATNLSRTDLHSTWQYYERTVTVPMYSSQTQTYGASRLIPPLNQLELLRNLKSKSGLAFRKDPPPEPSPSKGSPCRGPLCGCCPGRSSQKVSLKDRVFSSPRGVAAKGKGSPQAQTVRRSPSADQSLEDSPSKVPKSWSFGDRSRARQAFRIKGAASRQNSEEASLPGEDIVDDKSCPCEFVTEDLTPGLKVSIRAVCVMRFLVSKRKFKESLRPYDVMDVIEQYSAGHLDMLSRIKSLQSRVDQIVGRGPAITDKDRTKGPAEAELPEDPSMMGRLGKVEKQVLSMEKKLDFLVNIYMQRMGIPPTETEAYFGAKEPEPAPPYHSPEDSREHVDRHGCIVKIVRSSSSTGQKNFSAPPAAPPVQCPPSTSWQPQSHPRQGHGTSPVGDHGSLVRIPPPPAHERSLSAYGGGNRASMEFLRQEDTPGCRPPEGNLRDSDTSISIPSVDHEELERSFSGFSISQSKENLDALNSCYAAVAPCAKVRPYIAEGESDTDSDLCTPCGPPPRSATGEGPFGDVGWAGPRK
T1 sequence (O43525 whole entry): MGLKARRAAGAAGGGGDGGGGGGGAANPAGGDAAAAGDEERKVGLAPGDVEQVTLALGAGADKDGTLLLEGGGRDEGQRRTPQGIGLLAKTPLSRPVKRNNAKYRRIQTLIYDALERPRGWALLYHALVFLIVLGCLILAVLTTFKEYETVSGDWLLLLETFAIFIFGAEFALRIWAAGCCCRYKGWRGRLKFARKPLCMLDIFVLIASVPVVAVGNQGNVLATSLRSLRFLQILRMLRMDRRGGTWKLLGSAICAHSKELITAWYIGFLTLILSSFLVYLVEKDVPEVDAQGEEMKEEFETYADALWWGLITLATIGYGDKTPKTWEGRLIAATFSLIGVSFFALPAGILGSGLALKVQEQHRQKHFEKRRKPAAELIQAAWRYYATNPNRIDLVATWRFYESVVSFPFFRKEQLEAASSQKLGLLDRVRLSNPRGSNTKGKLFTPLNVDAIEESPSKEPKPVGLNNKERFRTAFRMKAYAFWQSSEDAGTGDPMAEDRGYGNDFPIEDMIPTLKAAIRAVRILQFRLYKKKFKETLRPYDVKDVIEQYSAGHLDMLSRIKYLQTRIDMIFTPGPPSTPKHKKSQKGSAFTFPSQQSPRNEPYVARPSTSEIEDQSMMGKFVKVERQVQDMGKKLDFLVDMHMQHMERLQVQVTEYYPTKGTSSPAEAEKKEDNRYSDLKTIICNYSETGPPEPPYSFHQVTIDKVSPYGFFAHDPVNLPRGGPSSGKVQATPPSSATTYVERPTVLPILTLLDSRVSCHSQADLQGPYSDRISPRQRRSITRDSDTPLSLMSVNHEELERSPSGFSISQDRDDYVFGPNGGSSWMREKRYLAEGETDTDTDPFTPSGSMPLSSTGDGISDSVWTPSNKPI

For the molecule `OB(O)c1ccccc1` [PBA, phenylboronic acid], the EC50 in test [1] was 3.7 ± 1.4 mM; in test [2], > 10 mM.

In the case of `O=C(O)c1ccccc1` [benzoic acid], in test [3], the “reversible inhibition at 10 mM” value is on record as “Perfusion of benzoic acid reversibly inhibited Q1/E1”.

Regarding `OCc1ccccc1` [benzyl alcohol], the “Phenylboronic Acid (PBA) / Δ V1/2 (mV)” value in test [4] is 2.7±4.9 mV; in test [5], −5.9±2.9 mV; in test [6], −4.4±2.4 mV.
